In paper PMC10037499, “High-Throughput Screen Reveals the Structure–Activity Relationship of the Antimicrobial Lasso Peptide Ubonodin” (ACS Central Science, 2023):
Where a SMILES comes first, the peptide text is derived from it.

Columns and labels:
B. cenocepacia AU0756 = tested on: B. cenocepacia AU0756
Procedure: We proceeded to test the antimicrobial activity of the selected variants against two clinical isolates of the Bcc, B. cenocepacia AU0756 and B. cenocepacia AU24362, in broth microdilution assays. […] We revisited these measurements using broth microdilution assays following the Clinical & Laboratory Standards Institute (CLSI) standard.
Broth microdilution assays of the ubonodin variants were conducted using B. cenocepacia AU0756 and B. cenocepacia AU24362 with guidelines provided by the Clinical & Laboratory Standards Institute (CLSI).

[1] = tested on: RNA polymerase (RNAP) in E. coli MC1061; experiment: High-throughput growth-based screen with NGS (enrichment value) for RNA polymerase inhibition; type: cell-based; set-up: key to Experimental observation (enrichment observed in the screen): Dropout: Many variants inhibit RNAP so strongly that they cannot be detected by NGS after IPTG induction (referred to as dropout variants); conditions: Table S4; variants whose MICs were tested
Procedure: The single mutant library was analyzed by NGS at multiple stages of sample preparation (Figure 2A) to track its evolution throughout the screen. Specifically, the frequency of each possible aa variant was computed at each stage by summing up counts for each distinct translated sequence and dividing by the total number of counts for all variants (eq S1, SI Methods). Since cells expressing an RNAP-inhibiting ubonodin variant will have growth defects relative to cells with a nontoxic variant, RNAP-inhibiting ubonodin variants are expected to decrease in frequency throughout the screen.
First, the naïve library (digested PCR products) was sequenced. These digested PCR products were cloned into the pUboABC backbone and transformed into a recA^– cloning strain. This plasmid library was sequenced again to capture any changes upon transformation of the library into E. coli. The change between the naïve library and the cloning transformation library was minimal (Figure S6A). This plasmid library was transformed into the screening strain MC1061, and the plasmid from resulting colonies was also sequenced. The library in MC1061 was grown up en masse in liquid culture to mid log phase, and a portion of the culture was plated. These colonies were scraped, then the plasmid was isolated and sequenced. Finally, the liquid culture was induced with IPTG, after which a portion of the culture was plated and the plasmid was isolated and sequenced. It is key to note that all samples from liquid cultures were plated prior to sequencing to ensure that only viable cells were sequenced. […] The rationale for sequencing at these five different stages was the possibility that leaky expression of uboA would affect the frequency of active mutants prior to IPTG induction. Indeed, we observed that the frequency of some uboA mutants dropped as soon as they were transformed into the screening strain MC1061 while the frequency of other mutants climbed (Figure 2B).
The behavior of the point variants (i.e., variants with a single aa substitution) was examined by calculating their enrichment values, the base-2 logarithm of the ratio of the variant’s frequency at a specific step of the screen to the variant’s frequency in the cloning transformation library (eq S3, Figure S6). The most relevant enrichment value for ubonodin activity is the comparison between the post-IPTG library and the cloning transformation library (Figure 2A). […] Many variants inhibit RNAP so strongly that they cannot be detected by NGS after IPTG induction (referred to as dropout variants). […] Variants with a stop codon mutation and variants containing an aa substitution at Tyr9 or Tyr27 (positions conserved in MccJ25 and shown to be crucial for RNAP inhibition, see Figure S7)[26] have positive enrichment values (1.2–1.7), serving as quality control for the screen (Figure 3A). Strikingly, 63% of point variants decreased in frequency, indicating a high tolerance to aa substitution. […] The positions with active variants are Asn11 through Ser24 in the loop and Asp3, Ser5, and Ala7 in the ring.
The single mutant and double mutant libraries were transformed into E. coli MC1061. Colonies were resuspended in media and subcultured into a larger culture. Aliquots of the cultures were sampled prior to and after induction with 10 μM IPTG and 100 μM IPTG and plated. After 16 h of incubation, the colonies were resuspended in media and plasmids were miniprepped.
Samples were PCR amplified with barcoded primers and combined such that double mutant library samples were over-represented compared to single mutant library samples to provide sufficient coverage of the larger double mutant library. Samples were sequenced using an Illumina MiSeq Micro 300nt and an Illumina NovaSeq 6000 Sequencing System. Downstream analysis of the data was conducted with Python, MATLAB, and R.
V to reduce genomic DNA contamination. One fragment was amplified with Xho I For Lib and a […]

E. coli MC1061 = experiment: Spot dilution assay of E. coli producing the ubonodin variant from pUboABC; type: cell-based; conditions: variant in pUboABC backbone in E. coli MC1061, induction with 100 μM IPTG, ten-fold serial dilutions, biological duplicates
Procedure: Cultures of E. coli MC1061 transformed with the appropriate plasmids were grown. Aliquots of the cultures were sampled prior to and after induction with 100 μM IPTG, and 10-fold serial dilutions were plated. […]
All cloning was conducted by PCR amplification (using Q5 polymerase), restriction digestion, ligation, (using T4 DNA ligase), and transformation into chemically competent E. coli XL1-Blue. All cloning with a pUboABC backbone was done by plating transformation mixt ures onto Lysogeny Broth (LB) plates supplemented with 100 μg/mL ampicillin and 0.2% w/v glucose, and colonies were inoculated into LB media supplemented with 100 μ g/mL ampicillin and 0.2% w/v glucose to suppress any leaky expression. Cloning for all other plasmid constructs was done by plating transformation mixtures onto Lysogeny Broth (LB) plates supplemented with 100 μ g/ m L ampicillin, and colonies were inoculated into LB media supplemented with 100 μ g/ m L ampicillin.
Plasmids were extracted using Qiagen QIAprep Spin Miniprep Kit and sequence verified using Sanger sequencing. All primer sequences are listed in Table S7, and all plasmid constructs are […]
pUboABC was cloned by amplifying pWC99 with pQE-80 NheI For and pAT8 Nco I Rev.
The amplicon was ligated into pWC99 digested with Nhe I and Nco I. pUboBC was cloned by digesting pUboABC with Nh e I and Nco I and ligating that fragment into pQE-80 digested with Nhe I and Nco I. pUboABC S5H I16P and pUboABCD S5H I16P were cloned with overlap PCR using pWC99 as the template. One fragment was amplified with pQE-80 EcoRI For and S5H I16P Rev v2 and the second fragment was amplified with S5H I16P For v2 and pQE-80 HindII I Rev. […]
All remaining plasmid constructs were cloned with overlap PCR. One fragment was amplified with Xho I For Lib and a mutagenic reverse primer and the second fragment was amplified with NheI Rev Lib and a mutagenic forward primer. The templates and mutagenic […]
The fragments were joined with a second round of PCR and amplified with XhoI For Lib and NheI Rev Lib. Amplicons were ligated into the appropriate plasmid backbone digested with Xho I and Nhe I-HF. The plasmid backbones […]
The appropriate plasmid was transformed into electrocompetent E. coli MC1061, plated onto LB plates supplemented with 100 μ g/ m L ampicillin and 0.2% w/v glucose, and incubated at 30 °C for 16 hours. Colonies were inoculated into LB media supplemented with 100 μ g/ m L ampicillin and 0.2% w/v glucose and grown at 37 °C for 16 hours. These cultures were sub-cultured to an OD600 of 0.02 in 50 mL of LB media supplemented with 100 μg/mL ampicillin in a 250 mL flask. Once the OD600 reached 0.3, a 1 mL aliquot was sampled immediately prior to inducing the cultures with 100 μM isopropyl β-D-1-thiogalactopyranoside (IPTG). The aliquot was washed with Phosphate-Buffered Saline (PBS) two times and ten-fold serial dilutions were spotted onto LB plates supplemented with 100 μ g/ m L ampicillin and 0.2% w/v glucose. For each following timepoint, a 1 mL sample of each culture was withdrawn, washed with PBS two times, and ten- […]
fold serial dilutions were spotted onto LB plates supplemented with 100 μ g/m L ampicillin and 0.2% w/v glucose. Plates were incubated for 16 hours at 37 °C before imaging. […]
250 mL flask. Ten-fold serial dilutions of the culture were plated onto LB plates supplemented with 100 μ g/ m L ampicillin and 0.2% w/v glucose. The cultures were then grown at 37 °C, and once the OD600 reached 0.3, a 1 mL sample of the culture was withdrawn immediately before the cultures were induced with 10 μM or 100 μM IPTG and returned to grow longer. […]
All plates were incubated at 37 °C for 16 hours, after which the number of colonies was counted. Three biological replicates of this assay were done.
Co-Culture of E. coli MC1061 pUboABC and E. coli MC1061 pUboBC pUboABC (0.9 ng) and pUboBC (0.1 ng) were transformed into electrocompetent E. coli MC1061 with a one- hour outgrowth at 37 °C in LB media supplemented with 0.2% w/v glucose. […]

Compound | B. cenocepacia AU0756 MIC (B. cenocepacia AU0756) [µM] | Experimental observation (enrichment observed in the screen) [1] | Inhibits Growth (E. coli MC1061)
CC[C@H](C)[C@@H]1NC(=O)[C@H](CO)NC(=O)CNC(=O)[C@H](CC(=O)O)NC(=O)CNC(=O)CNC(=O)CC[C@@H](C(=O)N[C@@H](Cc2ccc(O)cc2)C(=O)N[C@@H](Cc2ccccc2)C(=O)N[C@@H](CC(N)=O)C(=O)N[C@@H](CCCNC(=N)N)C(=O)N2CCC[C@H]2C(=O)N[C@@H](CC(N)=O)C(=O)N[C@@H](Cc2c[nH]cn2)C(=O)N[C@H](C(=O)N[C@@H](Cc2c[nH]cn2)C(=O)N[C@@H](CC(=O)O)C(=O)N[C@@H](Cc2c[nH]c3ccccc23)C(=O)N[C@@H](CCC(N)=O)C(=O)N[C@H](C(=O)N[C@@H](CCSC)C(=O)N[C@@H](CC(=O)O)C(=O)N[C@@H](CO)C(=O)NCC(=O)N[C@@H](Cc2ccc(O)cc2)C(=O)N[C@@H](Cc2ccc(O)cc2)C(=O)NCC(=O)O)[C@@H](C)CC)[C@@H](C)CC)NC(=O)[C@H](C)NC1=O [M14N] (HELM PEPTIDE1{G.G.D.G.S.I.A.E.Y.F.N.R.P.N.H.I.H.D.W.Q.I.M.D.S.G.Y.Y.G}$PEPTIDE1,PEPTIDE1,1:R1-8:R3$$$V2.0) | 0.5 to 2 | -4.7 | Yes
CC[C@H](C)[C@@H]1NC(=O)[C@H](CO)NC(=O)CNC(=O)[C@H](CC(=O)O)NC(=O)CNC(=O)CNC(=O)CC[C@@H](C(=O)N[C@@H](Cc2ccc(O)cc2)C(=O)N[C@@H](Cc2ccccc2)C(=O)N[C@@H](CC(N)=O)C(=O)N[C@@H](CCCNC(=N)N)C(=O)N2CCC[C@H]2C(=O)N[C@@H](CCSC)C(=O)N[C@@H](Cc2c[nH]cn2)C(=O)N[C@@H](CCC(=O)O)C(=O)N[C@@H](Cc2c[nH]cn2)C(=O)N[C@@H](CC(=O)O)C(=O)N[C@@H](Cc2c[nH]c3ccccc23)C(=O)N[C@@H](CCC(N)=O)C(=O)N[C@H](C(=O)N[C@@H](CCSC)C(=O)N[C@@H](CC(=O)O)C(=O)N[C@@H](CO)C(=O)NCC(=O)N[C@@H](Cc2ccc(O)cc2)C(=O)N[C@@H](Cc2ccc(O)cc2)C(=O)NCC(=O)O)[C@@H](C)CC)NC(=O)[C@H](C)NC1=O [I16E] (HELM PEPTIDE1{G.G.D.G.S.I.A.E.Y.F.N.R.P.M.H.E.H.D.W.Q.I.M.D.S.G.Y.Y.G}$PEPTIDE1,PEPTIDE1,1:R1-8:R3$$$V2.0) | 0.5 to 1 | -7.5 | Yes
CC[C@H](C)[C@@H]1NC(=O)[C@H](Cc2c[nH]cn2)NC(=O)CNC(=O)[C@H](CC(=O)O)NC(=O)CNC(=O)CNC(=O)CC[C@@H](C(=O)N[C@@H](Cc2ccc(O)cc2)C(=O)N[C@@H](Cc2ccccc2)C(=O)N[C@@H](CC(N)=O)C(=O)N[C@@H](CCCNC(=N)N)C(=O)N2CCC[C@H]2C(=O)N[C@@H](CCSC)C(=O)N[C@@H](Cc2c[nH]cn2)C(=O)N2CCC[C@H]2C(=O)N[C@@H](Cc2c[nH]cn2)C(=O)N[C@@H](CC(=O)O)C(=O)N[C@@H](Cc2c[nH]c3ccccc23)C(=O)N[C@@H](CCC(N)=O)C(=O)N[C@H](C(=O)N[C@@H](CCSC)C(=O)N[C@@H](CC(=O)O)C(=O)N[C@@H](CO)C(=O)NCC(=O)N[C@@H](Cc2ccc(O)cc2)C(=O)N[C@@H](Cc2ccc(O)cc2)C(=O)NCC(=O)O)[C@@H](C)CC)NC(=O)[C@H](C)NC1=O [S5H I16P] (HELM PEPTIDE1{G.G.D.G.H.I.A.E.Y.F.N.R.P.M.H.P.H.D.W.Q.I.M.D.S.G.Y.Y.G}$PEPTIDE1,PEPTIDE1,1:R1-8:R3$$$V2.0) | 8 | Dropout | Yes
CC[C@H](C)[C@H](NC(=O)[C@H](CCC(N)=O)NC(=O)[C@H](Cc1c[nH]c2ccccc12)NC(=O)[C@H](CC(=O)O)NC(=O)[C@H](Cc1c[nH]cn1)NC(=O)[C@@H](NC(=O)[C@H](Cc1c[nH]cn1)NC(=O)[C@H](CCSC)NC(=O)[C@@H]1CCCN1C(=O)[C@H](CCCNC(=N)N)NC(=O)[C@H](CC(N)=O)NC(=O)[C@H](Cc1ccccc1)NC(=O)[C@H](Cc1ccc(O)cc1)NC(=O)[C@@H]1CCC(=O)NCC(=O)NCC(=O)N[C@@H](CC(=O)O)C(=O)NCC(=O)N[C@@H](CO)C(=O)N[C@@H]([C@@H](C)CC)C(=O)N2CCC[C@H]2C(=O)N1)[C@@H](C)CC)C(=O)N[C@@H](CCSC)C(=O)N[C@@H](CC(=O)O)C(=O)N[C@@H](CO)C(=O)NCC(=O)N[C@@H](Cc1ccc(O)cc1)C(=O)N[C@@H](Cc1ccc(O)cc1)C(=O)NCC(=O)O [A7P] (HELM PEPTIDE1{G.G.D.G.S.I.P.E.Y.F.N.R.P.M.H.I.H.D.W.Q.I.M.D.S.G.Y.Y.G}$PEPTIDE1,PEPTIDE1,1:R1-8:R3$$$V2.0; C-terminus assumed) | 2 | -3.4 | Yes
